Laboratory results: US9611277B2 (Janssen Pharmaceutica NV, priority 2013, dated 2017)

Legend:
[1] = biological target: rat orexin 1 receptor (Rattus norvegicus, UniProt P56718); experiment: Rat orexin 1 receptor radioligand binding; conditions: rat orexin 1 receptor; averages of 2-20 runs; read-out: rOX1 Ki
Method in brief: (§1)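 Competition binding with the tritiated thiazolyl-pyrrolidinyl-methanone radioligand in PBS on homogenized rat or human OX1R-expressing cell suspensions, ≤0.1% DMSO; nonspecific binding defined with 10 μM almorexant. Bound radioactivity read by scintillation after filtration; IC50 from one-site competition fit, converted to Ki using pre-determined radioligand Kd.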

[2] = biological target: human orexin 1 receptor (Homo sapiens, UniProt O43613); experiment: Human orexin 1 receptor radioligand binding; conditions: human orexin 1 receptor; averages of 2-20 runs; read-out: hOX1 Ki
Method in brief: as §1

[3] = biological target: human orexin 2 receptor (Homo sapiens (Human), UniProt O43614); experiment: Human orexin 2 receptor radioligand binding; conditions: human orexin 2 receptor; averages of 2-20 runs; read-out: hOX2 Ki
Chain of human orexin 2 receptor (O43614 whole entry): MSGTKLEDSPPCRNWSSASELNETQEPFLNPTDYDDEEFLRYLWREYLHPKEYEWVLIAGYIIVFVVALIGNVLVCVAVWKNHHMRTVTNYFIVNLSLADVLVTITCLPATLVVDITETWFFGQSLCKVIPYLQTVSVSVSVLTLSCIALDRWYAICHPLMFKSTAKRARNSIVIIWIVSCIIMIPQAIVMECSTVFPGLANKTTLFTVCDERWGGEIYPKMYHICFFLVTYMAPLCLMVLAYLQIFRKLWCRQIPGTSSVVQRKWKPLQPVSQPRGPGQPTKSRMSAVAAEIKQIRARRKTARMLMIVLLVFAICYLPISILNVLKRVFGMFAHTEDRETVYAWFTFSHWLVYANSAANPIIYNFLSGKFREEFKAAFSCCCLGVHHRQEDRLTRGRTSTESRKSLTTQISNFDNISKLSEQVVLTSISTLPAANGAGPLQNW
Method in brief: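 HEK293 cells stably expressing human OX2 receptor, homogenized, incubated with [3H]-EMPA and compounds (DMSO ≤0.1%); nonspecific binding with 10 μM almorexant. Filter-bound radioactivity counted by scintillation; IC50 from one-site competition fit of triplicates, Ki from IC50 and predetermined radioligand Kd, averaged over 2-20 runs.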

Compound	Ki [1] [nM]	Ki [2] [nM]	Ki [3] [nM]
Cc1noc(-c2cc(F)ccc2C(=O)N2C[C@H]3C[C@@H](Nc4ccc(C(F)(F)F)cn4)[C@@H]2C3)n1 [Example 152, (4-fluoro-2-(3-methyl-1,2,4-oxadiazol-5-yl)phenyl)((1S,4S,6R)-6-((5-(trifluoromethyl)pyridin-2-yl)amino)-2-azabicyclo[2.2.1]heptan-2-yl)methanone]	30	16	1600
CN(c1ccc(C(F)(F)F)cn1)[C@@H]1C[C@H]2C[C@@H]1N(C(=O)c1ccccc1-n1nccn1)C2 [Example 153, (2-(2H-1,2,3-triazol-2-yl)phenyl)((1S,4S,6R)-6-(methyl(5-(trifluoromethyl)pyridin-2-yl)amino)-2-azabicyclo[2.2.1]heptan-2-yl)methanone]	3	3	342
CN(c1ccc(C(F)(F)F)cn1)[C@@H]1C[C@H]2C[C@@H]1N(C(=O)c1cc(F)ccc1-n1nccn1)C2 [Example 155, (5-fluoro-2-(2H-1,2,3-triazol-2-yl)phenyl)((1S,4S,6R)-6-(methyl(5-(trifluoromethyl)pyridin-2-yl)amino)-2-azabicyclo[2.2.1]heptan-2-yl)methanone]	5	3	303
Cc1ccc(-n2nccn2)c(C(=O)N2C[C@H]3C[C@@H](N(C)c4ccc(C(F)(F)F)cn4)[C@@H]2C3)n1 [Example 156, ((1S,4S,6R)-6-(methyl(5-(trifluoromethyl)pyridin-2-yl)amino)-2-azabicyclo[2.2.1]heptan-2-yl)(6-methyl-3-(2H-1,2,3-triazol-2-yl)pyridin-2-yl)methanone]	7	5	274

The remaining lines, values ahead:

Ki [1] [nM]	Ki [2] [nM]	Ki [3] [nM]	Compound
4	6	329	CN(c1ccc(C(F)(F)F)cn1)[C@@H]1C[C@H]2C[C@@H]1N(C(=O)c1cccc(F)c1-n1nccn1)C2 [Example 154, (3-fluoro-2-(2H-1,2,3-triazol-2-yl)phenyl)((1S,4S,6R)-6-(methyl(5-(trifluoromethyl)pyridin-2-yl)amino)-2-azabicyclo[2.2.1]heptan-2-yl)methanone]
5	2	340	CN(c1ccc(C(F)(F)F)cn1)[C@@H]1C[C@H]2C[C@@H]1N(C(=O)c1cc(F)ccc1-c1ncccn1)C2 [Example 158, (5-fluoro-2-(pyrimidin-2-yl)phenyl)((1S,4S,6R)-6-(methyl(5-(trifluoromethyl)pyridin-2-yl)amino)-2-azabicyclo[2.2.1]heptan-2-yl)methanone]
6	4	209	CN(c1ccc(C(F)(F)F)cn1)[C@@H]1C[C@H]2C[C@@H]1N(C(=O)c1c(F)cccc1-c1ncccn1)C2 [Example 159, (2-fluoro-6-(pyrimidin-2-yl)phenyl)((1S,4S,6R)-6-(methyl(5-(trifluoromethyl)pyridin-2-yl)amino)-2-azabicyclo[2.2.1]heptan-2-yl)methanone]
9	6	208	CCN(c1ccc(C(F)(F)F)cn1)C1CC2CC1N(C(=O)c1cccc(F)c1-c1ncccn1)C2 (stereo not drawn) [Example 160]
14	5	384	O=C(c1cccc(F)c1-c1ncccn1)N1C[C@H]2C[C@@H](N(CC3CC3)c3ccc(C(F)(F)F)cn3)[C@@H]1C2 [Example 161, ((1S,4S,6R)-6-((cyclopropylmethyl)(5-(trifluoromethyl)pyridin-2-yl)amino)-2-azabicyclo[2.2.1]heptan-2-yl)(3-fluoro-2-(pyrimidin-2-yl)phenyl)methanone]
19	12	962	COCCN(c1ccc(C(F)(F)F)cn1)[C@@H]1C[C@H]2C[C@@H]1N(C(=O)c1cccc(F)c1-c1ncccn1)C2 [Example 163, (3-fluoro-2-(pyrimidin-2-yl)phenyl)((1S,4S,6R)-6-((2-methoxyethyl)(5-(trifluoromethyl)pyridin-2-yl)amino)-2-azabicyclo[2.2.1]heptan-2-yl)methanone]
